This note sets out measurements from patent publication US20240366571A1, “MODULATORS OF SK4 POTASSIUM CHANNEL AND USES THEREOF” (Ramot at Tel-Aviv University Ltd., priority 2022, published 2024).

This assay addresses T1, WT SK4 channels (Homo sapiens, UniProt O15554).
T1 construct: expressed in transfected cells; host or cells: CHO cells
The assay can be described thus: Inside-out macro-patch recording of WT SK4 channels in transfected CHO cells. It is filed as cell-based. The protocol:
Inside-out macro-patch recording: To measure the Ca^2+ concentration dependence for SK4 channel activation, CHO cells were co-transfected with plasmids encoding WT SK4 (1 μg) and WT CaM (1 μg) using the Lipofectamine reagent at a ratio of 1:2. The cells were transfected 48 hours prior to recordings. The patch pipettes were pulled and fire-polished with a MF-900 micro-forge (Narashige) to reach an internal diameter of […]. The resistance of the patch electrodes ranged from 2-3 MΩ. The pipette solution contained 135 mM KCl, 1 mM MgSO4, 0.91 mM CaCl2, and 10 mM HEPES at pH 7.3. The bath solution contained 135 mM KCl, 5 mM EGTA, and 10 mM HEPES at pH 7.3. EGTA was used to titer the different Ca^2+ concentration solutions, calculated using the software by C. Patton of Stanford University (http://maxchelator(dot)stanford(dot)edu/). Currents were recorded by 10 repetitive 1 second duration voltage ramps from −100 mV to +100 mV from a holding potential of 0 mV. The current amplitudes in response to increasing Ca^2+ concentrations were normalized to those obtained at a saturating Ca^2+ concentration (3 μM). Furthermore, to determine the Ca^2+ concentration dependence for activation in the presence of a tested compound, such as the exemplary compound BA6b9 (10 μM), the current amplitudes were normalized to those obtained at large maximal Ca^2+ concentration of 10 μM. For PIP2-dependent activation, PIP2 affinity to the SK4 channel was also examined in the inside-out configuration. The dose-response curve for PIP2 was measured with increasing concentrations of diC8-PIP2 in the presence of 1 μM Ca^2+. The diC8-PIP2 effect on the channel current was measured after complete depletion of the native PIP2 using sonicated poly-L-lysine (PLL) 50 μg/ml and a subsequent 2-minute washout. […] Apparent EC50 values for Ca^2+ or diC8-PIP2 were determined by fitting the data points to a standard dose-response curve Y=100/(1+10^(log EC(50)−X)*HillSlope).
The calcium dependence of the human SK4 K^+ channel in transfected CHO cells was characterized using inside-out macro-patches. The expressed currents were recorded in response to voltage ramps (−100 millivolt (mV) to +100 mV for 1 seconds) and by increasing the free-Ca^2+ concentrations applied to the internal face of the membrane. […]
To examine whether PIP2 is involved in the modulation of the SK4 channel, channel trafficking to the plasma membrane was increased by co-transfecting CHO cells with plasmid DNAs encoding for the channel and for wild type (WT) CaM. The resulting currents were recorded from inside-out macro-patches, where the intracellular solution contained a saturating concentration of 1 μM free-Ca^2+, as shown in FIG. 1B (see, black plot).

Turning to `CCCCCCCn1c(=O)oc2ccccc21` [BA6b9, 3-heptylbenzo[d]oxazol-2(3H)-one], the “lowering of the sensitivity of SK4 channels to Ca2+” value (10 μM compound) is “about 7 fold”. For the same compound, the inhibition at 10 µM (CHO, 10 μM, 1 μM free-Ca2+, read-out: inhibition of SK4 currents in inside-out macro-patches) was 66%.
